Experimental data from US9670223B2, “Compounds with super-aspirin effects” (SOLVOTRIN THERAPEUTICS LTD., priority 2011, dated 2017).
Entries after “also recorded” stand apart in the source; their conditions may differ.

Key:
[1] = tested on: platelet rich plasma (PRP); test: ADP-induced platelet aggregation in PRP; type: cell-based, human; settings: ADP 10 μM, PRP; for effect of ODQ pretreatment on inhibition of ADP induced aggregation: ODQ 10 μM, compounds 100 μM
Method: PRP and WP (2.5×10^8 platelets ml^−1) were prepared from blood. Briefly 36 ml whole blood was collected into 4 ml of 3.15% sodium citrate; this was centrifuged at 250 ¥g for 20 min (with gentle acceleration and deceleration). At this point PRP, which had separated from white blood cells and red blood cells, was gently removed. When WP were required this PRP was centrifuged at 700 g for 10 min (with gentle acceleration and deceleration) in the presence of prostacyclin. The platelet-poor plasma (PPP) was removed and the platelet pellet was washed three times with Tyrode's buffer, before being re-suspended in Tyrode's buffer to a concentration of 2.5 ¥108 platelets/ml.
Platelet aggregation was measured by light aggregometry. […] Aggregation was initiated by the addition of agonists, and monitored by Aggro-Link software for at least 6 min.
To study the aggregatory potency of ADP, the concentration-response (0.3-10 μM) curves were generated. Collagen at different concentrations (2-5 μg/ml) was also used to induce platelet aggregation. Submaximal concentrations of agonists, i.e. the concentrations that gave approximately 95% of the maximal aggregation were used to study the effects of inhibitors of aggregation. Aspirin and aspirin prodrugs was incubated for various intervals prior to the addition of aggregating agents.
Eserine (in DMSO, 10 μM, giving a final concentration≦0.25% DMSO, which pilot studies had determined not to affect platelet aggregation) was preincubated with PRP or WP for 5 min in the aggregometer with stirring at 900 r.p.m. before the addition of test compounds (ST0701-05), which were incubated in PRP or WP for a further 10 min prior to the addition of an agonist (10 μM ADP or 5 μg/ml Collagen) to induce platelet aggregation.
1H-[1,2,4]Oxadiazolo[4,3-a]quinoxalin-1-one (ODQ, dissolved in 100% DMSO, used at a final concentration of 10 μM, which gave a final concentration not more than 0.25% DMSO) was preincubated with PRP or WP for 5 min in the aggregometer with stirring at 900 r.p.m. before the addition of test compounds (ST0701-05), which were incubated in PRP or WP for a further 10 min prior to the addition of an agonist (10 μM ADP or 5 μg/ml collagen) to induce platelet aggregation.
Eserine (10 μM) was incubated with PRP for 5 min in the aggregometer with stirring at 900 r.p.m. before the addition of test compound ST0702 salicylate (500 μM), which was incubated in PRP for a further 10 min prior to the addition of the agonist ADP (10 μM) to induce platelet aggregation.

washed platelet samples = test: Arachidonic acid-induced platelet aggregation; type: cell-based, human; settings: n=4
MMP-2 = MMP-2 release during 59M-induced TCIPA by zymography; type: cell-based, human; settings: 300 uM, P>0.05
Method: Sample collection was carried out as previously described (Jurasz et al., 2001; Medina et al., 2006). Briefly, platelets at a concentration of 2.5×10^8/ml were placed into lumi-aggregometer and tumor cells (59M) were added at 1×10^3/ml. When platelet aggregation reached 50% maximal light transmission the reaction was terminated and samples were collected. The samples were then centrifuged at 900×g at room temperature for 10 min. After centrifugation, platelet releasates were collected and stored at −80 C until assayed for the presence of MMP activity by zymography.
Gelatin zymography was used to detect the activity of MMP-2 in the releasates as previously described (Alonso-Escolano et al., 2004; Jurasz et al., 2001; Medina et al., 2006). Briefly, samples were subjected to 10% sodium dodecyl sulfate-polyacrylamide gel electrophoresis (SDS-PAGE) with copolymerized gelatin (0.2%; Sigma Chemical Co, St. Louis, Mo.) incorporated as a substrate for gelatinolytic proteases. […] The gelatinolytic activities were detected as transparent bands against the background of Coomassie blue-stained gelatin. The intensities of the separate bands were analyzed and quantified using ChemiDoc XRS System (Bio-Rad, Hercules, Calif., U.S.A.). The gelatinolytic activity of each band was expressed as arbitrary units of density/mg protein.

[2] = GI tolerability testing: gastric ulcerogenic effect in rats; type: in vivo; settings: rat, aspirin 30 mg/Kg daily or molar equivalent doses, oral gavage, 3 days
Method: In this study, rats are fed Aspirin 30 mg/Kg daily or molar equivalent doses of ISAS, ISANA (“Nicotinate”), ISANO “Meta” nitrate or ISAMNA in oral gavage daily for 3 days (n=3 per group). At the end of the dosing period, all animals were sacrificed, stomachs removed and were immersed in 2% formalin for at least 10 min to fix the gastric tissue wall, and will opened along the greater curvature for scoring for irritation or hemorrhagic lesions or ulcers developed in the corpus mucosa under a dissecting microscope on a 5-point scale. The percentage of stomach surface area showing ulcers was recorded for each animal and expressed as a percentage.

59M cells = test: Flow-mediated TCIPA using an ultrasound standing wave trap; type: cell-based, human; settings: 500 μM, 59M cell cluster
Source text: The ultrasound trap had three essential features: a transducer (Ferroperm, Kvistgard, Denmark) in a housing of radial symmetry, an aqueous phase and a reflector that provided optical access from above. The trap was driven with a function generator (Hewlett Packard 33120A, UK). Microscopic observation occurred with a fast, high-resolution XM10 camera (Soft Imaging System, SIS, GmbH) mounted on an Olympus BX51M reflection epi-fluorescence microscope. Images were captured by a standard PC equipped with the Cell-D image acquisition software (Soft Imaging System, SIS, GmbH).
The experimental procedure was as follows: 59M cells were introduced into the trap, the acoustic field (2.13 MHz, 0.85 MPa) was initiated and cell clusters were allowed to form. Clusters remained levitated in suspension for 10 min. Washed platelets (2.5×10^8/ml) were introduced into the trap at a flow rate of 3 μl/min. Perfusion of washed platelets around the cluster proceeded following initial adhesion of platelets to the periphery of the cluster.
To study the effect of aspirin and aspirin prodrugs in TCIPA, washed platelets were pre-incubated for 10 min at room temperature with the inhibitors: aspirin, nicotinate, ISAS, ISMNA, ortho and meta (all at a concentration of 500 μM), prior to their introduction into the ultrasound trap. […] The cell cluster-platelet aggregate remained under microscopic observation for further 10 min (the upper time limit established in the current study) under continuous flow conditions. Further experiments were performed with ST0702 salicylate (500 μM).

| SMILES | inhibition of ADP (10 μM) induced aggregation in PRP, comparison in words [1] | effect of ODQ pretreatment on inhibition of ADP induced aggregation [1] | effect on arachidonic acid (100 μM)-induced aggregation (washed platelet samples) | release of pro-MMP-2 during platelet aggregation induced by 59M cells (MMP-2) | gastric ulcerogenic effect [2] | inhibition of TCIPA under flow conditions (platelet-tumour cell disruption) (59M cells) |
| --- | --- | --- | --- | --- | --- | --- |
| CC(=O)Oc1ccccc1C(=O)O [Aspirin] | consistently less inhibition of aggregation than ST0701/02 | increased the inhibition | abolished | failed to prevent | significant gastric ulcerogenic effect |  |
| CC(=O)Oc1ccccc1C(=O)O[C@H]1CO[C@H]2[C@@H]1OC[C@H]2OC(=O)c1cccnc1 [ST0702, isosorbide-2-aspirinate-5-nicotinate] | more efficacious than aspirin | increased the inhibition |  |  |  | significantly arrested TCIPA; also recorded: effectively inhibit |
